Laboratory results as given in patent US7407980B2, “Imidazolinylmethyl aralkylsulfonamides” (Roche Palo Alto LLC, priority 2002, dated 2008).

Biological target: T1, alpha 1A adrenoceptors (Homo sapiens, UniProt P35348)
T1 construct: expressed in transfected cells; host or cells: CHO-K1 (clone 13)
T1 sequence (P35348 1-466): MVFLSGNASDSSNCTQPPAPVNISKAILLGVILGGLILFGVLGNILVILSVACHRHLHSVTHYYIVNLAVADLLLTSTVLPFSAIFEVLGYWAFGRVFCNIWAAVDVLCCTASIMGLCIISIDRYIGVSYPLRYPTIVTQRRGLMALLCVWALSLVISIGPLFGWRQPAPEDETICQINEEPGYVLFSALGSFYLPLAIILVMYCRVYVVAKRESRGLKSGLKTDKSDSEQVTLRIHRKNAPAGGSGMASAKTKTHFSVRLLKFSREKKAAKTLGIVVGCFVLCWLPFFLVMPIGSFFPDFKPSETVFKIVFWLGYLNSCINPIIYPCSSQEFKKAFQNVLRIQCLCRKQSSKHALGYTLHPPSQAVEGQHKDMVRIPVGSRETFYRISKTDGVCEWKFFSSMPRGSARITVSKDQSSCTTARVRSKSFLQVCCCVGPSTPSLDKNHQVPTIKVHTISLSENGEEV
Experiment: Functional assay: fluorescent dye (Fluo-3, FLIPR) determination of intracellular calcium in CHO-K1 cells expressing alpha 1A adrenoceptors (clone 13)
Assay type: cell-based
Settings: for EC50: CHO-K1 cells expressing alpha 1A adrenoceptor (clone 13), agonist, intracellular calcium, FLIPR, read-out: CHO-1A-13 pEC50 (converted); for CHO-1A-13 IA: intrinsic activity: maximum response relative to norepinephrine bitartrate (full agonist), CHO-K1 alpha 1A clone 13
Protocol: The activity of potential α1A/L activity in vitro was determined by evaluating the potency and relative intrinsic activity (relative to norepinephrine or phenylephrine) of standard and novel compounds using fluorescent dye determination of intracellular calcium concentrations.
This example illustrates a functional assay which can be used to determine α1A/L agonist activity of Compounds of Formula I.
The activity of compounds of this invention in vitro was examined using fluorescent dye determination of intracellular calcium concentrations.
Chinese hamster ovary cells CHO-K1 expressing the alpha 1A adrenoceptors (clone 13) are washed 4 times (approx. 300 μL/well) with fluorometric imaging plate reader (FLIPR) buffer (Hank's buffered saline solution (HBSS), 2 mM CaCl2, 10 mM HEPES, 2.5 mM probenecid, 100 μM ascorbic acid), with a final volume of 150 μL/well. Cells are loaded with 50 μL/well of 8 μM Fluo-3 AM (Molecular Probes, Eugene, Oreg.), for a final concentration of 2 μM Fluo-3 AM. Cells are then incubated for 60 min at 37° C. Following dye loading, cells are washed 4 times (approx. 300 μL/well) with FLIPR buffer with a final volume of 150 μL/well.
Test compound, control compound and reference compound are run in quadruplicate, 8-point curves on each plate with a final assay concentration range of 10^−4 M to 10^−11 M for each compound. All compounds are dissolved in DMSO at 10 mM, and serially diluted in FLIPR buffer.
The assay plate is placed in the FLIPR incubation chamber and a baseline fluorescence measurement (excitation @ 488 nm and emission @ 510-570 nm) is obtained (15 sec interval). An experimental run is then commenced. The reaction is started with the addition of 50 μL/well (at 4× final concentration) of test, control, or reference compound solution from the agonist plate to the assay plate to all 96 wells simultaneously. Fluorescence is measured for 120 sec at 1 sec intervals. Then, a second addition of 5 μM ionomycin (50 μL/well from 5× concentration ionomycin plate) is added to the assay plate. Fluorescence is measured for 30 sec at 1 sec intervals. All experiments are conducted at room temperature.
For each assay plate, responses (increase in peak fluorescence) in each well following addition of agonist (test, control and reference) are determined. These responses may be expressed as raw CFU (Corrected Fluorescence Units), as a % maximum ionomycin response or other unit as determined by the investigator.
For test compound, control compound (Norepinephrine (NE) bitartrate), and reference compound, the concentration producing a 50% increase in control response (EC50) is determined using iterative curve-fitting methods. Excel spreadsheet or Kaleidagraph software are used to fit data to the general logistic function (E=B+Emax·A^nH/A^nH+EC50^nH), where B is the corrected baseline fluorescence units (defined as zero), A is the concentration of agonist added and nH is the Hill slope (constrained to unity). EC50 values and maxima (Emax) for each curve can be estimated objectively using this software.
In addition, the intrinsic activity (a) is determined. Intrinsic activity is defined as the maximum response to test agonist divided by the maximum response to a full agonist acting through the same receptor. For these experiments, the full agonist is defined as Norepinephrine (NE) bitartrate (control).
As used herein an agonist is a compound that elicits a maximal response greater of that of norepinephrine with a pEC50>5.5.

Row | EC50 [nM] | CHO-1A-13 IA | SMILES
1 | 170 | 0.92 | COc1cc(CC2=NCCN2)ccc1NS(C)(=O)=O [Compound 2, N-[4-(4,5-Dihydro-1H-imidazol-2-ylmethyl)-2-methoxy-phenyl]-methanesulfonamide]
2 | 347 | 0.43 | COc1cc(NS(C)(=O)=O)ccc1CC1=NCCN1 [Compound 6, N-[4-(4,5-Dihydro-1H-imidazol-2-ylmethyl)-3-methoxy-phenyl]-methanesulfonamide]
3 | 302 | 0.65 | CS(=O)(=O)Nc1ccc(CC2=NCCN2)c2ccoc12 [Compound 8, N-[4-(4,5-Dihydro-1H-imidazol-2-ylmethyl)-benzofuran-7-yl]-methanesulfonamide]
4 | 661 | 0.16 | CCS(=O)(=O)Nc1ccc(CC2=NCCN2)cc1Cl [Compound 13, Ethanesulfonic acid [2-chloro-4-(4,5-dihydro-1H-imidazol-2-ylmethyl)-phenyl]-amide]
5 | 75.9 | 0.81 | COc1cc(CC2=NCCN2)c(Cl)cc1NS(C)(=O)=O [Compound 25, N-[5-Chloro-4-(4,5-dihydro-1H-imidazol-2-ylmethyl)-2-methoxy-phenyl]-methanesulfonamide]

Row | SMILES | EC50 [nM] | CHO-1A-13 IA
6 | COc1cc(NS(C)(=O)=O)c(OC)cc1CC1=NCCN1 [Compound 22, N-[4-(4,5-Dihydro-1H-imidazol-2-ylmethyl)-2,5-dimethoxy-phenyl]-methanesulfonamide] | 692 | 0.27
